Test results from patent publication US20240425857A1, “Means and Methods for Chronic Wound Healing” (VIB VZW, priority 2021, published 2024).
“Also recorded” adds a separate entry of the source.

How the values were obtained:
[1] = tested on: dendritic cells (BMDC); test: Efferocytosis assay: dendritic cells incubated with apoptotic Jurkat cells (flow cytometry or Incucyte live-cell imaging); type: cell-based, mouse; settings: apoptotic Jurkat targets; for efferocytosis (apoptotic cell uptake) by dendritic cells: 1:5 phagocyte:target ratio, cells pretreated 1 hour with the substance; for erastin-dependent increase in efferocytosis by dendritic cells: inhibitor given together with 5 μM erastin
Description: (§1) Efferocytosis assays. For induction of apoptosis, human Jurkat T cells were with stained with CypHerSE (#PA15401, GE Healthcare) or TAMRA (#C-1171, Invitrogen) or pHrodo™ Green STP Ester (#P35369, ThermoFisher), resuspended in RPMI with 5% fetal calf serum, treated with 150 mJ/cm^2 ultraviolet C irradiation (Stratalinker) and incubated for 4 h at 37° C. with 5% CO2. Dendritic cells were incubated with apoptotic targets at a 1:5 phagocyte: target ratio for the indicated times. Phagocytosis was assessed by a flow cytometry-based assay^21 or by Incucyte Live-cell imaging. As alternative targets for phagocytosis, dendritic cells were incubated with pHrodo™ Green E. coli BioParticles™ (#P35366, ThermoFisher) or Streptavidin Fluoresbrite® YG Microspheres, 2.0 μm (for simplicity, beads) at a 1:5 phagocyte: target ratio for the indicated times. When applicable, cells were pretreated for 1 hour with 5 μM erastin (#S7242, Bio-Connect B.V), 200 μM CP-91149 (#S2717, Bio-Connect B.V.), 0.2 mM 2-DG (2-Deoxy-D-glucose; #D8375-1G, Sigma), 5 μM UK5099 (#PZ0160, Sigma), 40 μM DON (6-Diazo-5-oxo-L-norleucine; #D2141-5 MG, Sigma), 10 μM 3-BP (3-Bromo-2-oxopropionic acid, #376817-M, Sigma), 10 mM Glutamate (#6106 Apr. 3, Sigma) before addition of targets.

[2] = tested on: Slc7a11-deficient dendritic cells; test: Efferocytosis by Slc7a11-deficient (Slc7a11 KO) dendritic cells; type: cell-based, mouse; settings: Slc7a11 KO BMDC, apoptotic Jurkat targets
Description: as §1

[3] = tested on: C57BL/6J mice; test: Full-thickness skin wounding (8-mm punch biopsy), wound healing in wild-type mice; type: in vivo, mouse
From the text: (§2) Skin wounding and erastin regimen. Full-thickness wounds were made as previously described^65.56 Briefly, wounds were made on shaved back skin by using 8-mm punch biopsy needles (Stiefel Instruments) under analgesia and general anesthesia in 8-week-old female C57BL/6J, B6.BKS (D)-Leprdb/J (db/db), GDF15KO, Slc7a11KO and control littermates. For wound healing experiments, assuming standard deviations of 10-15%, an experimental group of n=10 is needed to obtain statistical power of 90% (significance level 0.05) and detect a difference between means of 20%, using two-tailed paired T-testing. No animals were excluded from any experiment.
For topical applications, mice were intradermally injected with Imidazole ketone erastin (IKE at 20 mg kg^−1 in 100 μl PBS; MedChemExpress, #HY-114481) or recombinant human GDF-15 (0.7 mg kg^−1 in 100 μl PBS; R&D Systems, #9279-GD-050) or RSL3 (20 mg kg-1 in 100 μl PBS; Sellechem, #S8155) or the respective vehicle controls (DMSO or 4 mM HCl in 100 μl PBS) at the time of wounding and for two consecutive days. For the experiments indicated as ‘erastin regimen’ or vehicle regimen, 5 million apoptotic Jurkat cells were administrated once on day 0 in 50 μl PBS on top of back skin immediately after full-thickness excision biopsy. […]

[4] = tested on: db/db mice; test: Full-thickness skin wounding, wound healing in diabetic db/db mice; type: in vivo, mouse; settings: no apoptotic cell co-administration
From the text: as §2
For topical applications, mice were intradermally injected with Imidazole ketone erastin (IKE at 20 mg kg^−1 in 100 μl PBS; MedChemExpress, #HY-114481) or recombinant human GDF-15 (0.7 mg kg^−1 in 100 μl PBS; R&D Systems, #9279-GD-050) or RSL3 (20 mg kg-1 in 100 μl PBS; Sellechem, #S8155) or the respective vehicle controls (DMSO or 4 mM HCl in 100 μl PBS) at the time of wounding and for two consecutive days. For the experiments indicated as ‘erastin regimen’ or vehicle regimen, 5 million apoptotic Jurkat cells were administrated once on day 0 in 50 μl PBS on top of back skin immediately after full-thickness excision biopsy. For the mice injected intradermally with supernatants from efferocytic dendritic cells, supernatants from dendritic cells cultured with apoptotic Jurkat cells for 16 h were collected, centrifuged to eliminate debris and frozen or lyophilized for preservation.

[5] = tested on: dendritic cells; test: Determination of glycogen concentration in dendritic cells; type: cell-based, mouse; settings: CP-91149 added to erastin-treated BMDC
Description: Determination of glycogen concentration. The glycogen concentration was measured using a Glycogen Colorimetric/Fluorometric Assay Kit (#GENT-K646-10, BioVision) according to the manufacturer's instructions.

[6] = tested on: dendritic cells; type: cell-based, mouse
From the text: FIG. 6D, Assessment of erastin drug cytotoxicity in dendritic cells by measuring Sytox Green fluorescence.
FIG. 9B, Assessment of cytotoxicity of drugs tested on dendritic cells by measuring Sytox Green fluorescence.

`N[C@@H](CCC(=O)O)C(=O)O` [glutamate] was tested. Which “efferocytosis (apoptotic cell uptake) by dendritic cells” value [1] did it give?
The value was “boosted efferocytosis”.

Which “erastin-dependent increase in efferocytosis by dendritic cells” value (shortened to “erastin-dependent increase”) [1] does the source give for `O=C(O)C(=O)CBr` [3-BP, 3-Bromo-2-oxopropionic acid] here?
Its value is “dampened the enhanced inhibition due to erastin treatment”.

How did the “efferocytosis by Slc7a11-deficient dendritic cells” value [2] turn out when `C=C1[C@@H](C)[C@H]2[C@H](Cc3ccccc3)NC(=O)[C@]23[C@H](OC(C)=O)/C=C/[C@@](C)(O)C(=O)[C@@H](C)C/C=C/[C@H]3[C@@H]1O` [cytochalasin D] was run?
Its value is “abrogated”.

Which “erastin-dependent increase” value [1] does the source give for `N#C/C(=C\c1cn(-c2ccccc2)c2ccccc12)C(=O)O` [UK5099] here?
Its value is “had no impact on efferocytosis”.

Which “erastin-dependent increase” value [1] does the source give for `O=CC[C@@H](O)[C@H](O)[C@H](O)CO` [2-DG, 2-Deoxy-D-glucose] here?
Its value is “abrogated the enhanced efferocytosis due to Slc7a11 inhibition”.

With `[N-]=[N+]=CC(=O)CC[C@H](N)C(=O)O` [DON, 6-Diazo-5-oxo-L-norleucine] as the molecule, how does the “erastin-dependent increase” value [1] read?
Its value is “marginally decreased the erastin-mediated augmented efferocytosis”.

For `COC(=O)c1ccc([C@@H]2c3[nH]c4ccccc4c3C[C@@H](C(=O)OC)N2C(=O)CCl)cc1` [RSL3], which “wound healing, given with apoptotic cells at day 0” value ([3]; apoptotic Jurkat cells once on day 0, drug from day 0 to day 2) is on record?
The value was “did not improve wound healing”.

`CC(C)Oc1ccc(C(=O)Cn2ccnc2)cc1-n1c(CN2CCN(C(=O)COc3ccc(Cl)cc3)CC2)nc2ccccc2c1=O` [IKE, Imidazole ketone erastin] was tested. Which “wound healing, substance alone” value ([3]; full-thickness wound, no co-treatment) did it give?
Its value is “did not improve wound healing”.

What about the “diabetic wound healing, substance alone” value [4] of the same molecule?
Its value is “improves skin wound healing in diabetic mice”.

How did the “efferocytosis (apoptotic cell uptake) by dendritic cells” value [1] turn out when `COc1ccc(N(C(=O)CCl)C(C(=O)NCCc2ccccc2)c2cccs2)cc1Cl` (stereo not drawn) [ML-162] was run?
Its value is “did not enhance efferocytosis; also recorded: does not enhance efferocytosis by dendritic cells”.

Which “erastin-dependent increase” value [1] does the source give for `CN(C)C(=O)[C@H](O)[C@H](Cc1ccccc1)NC(=O)c1cc2cc(Cl)ccc2[nH]1` [CP-91149] here?
Its value is “strongly abrogated the erastin-dependent increase in efferocytosis”.

And the “glycogen levels in erastin-treated BMDC” value [5]?
The value was “reversed the glycogen levels in erastin-treated BMDC almost to DMSO control”.

`CCOc1ccccc1-n1c(C(C)N2CCN(C(=O)COc3ccc(Cl)cc3)CC2)nc2ccccc2c1=O` (stereo not drawn) [erastin] was tested. Which dendritic cell viability [6] did it give?
Its dendritic cell viability is “did not affect dendritic cell viability”.

B1: rGDF15: recombinant human GDF-15 (R&D Systems), member of the TGF-β superfamily (protein, UniProt Q99988 195-308, looked up)
Growth/differentiation factor …: ARARNGDHCPLGPGRCCRLHTVRASLEDLGWADWVLSPREVQVTMCIGACPSQFRAANMHAQIKTSLHRLKPDTVPAPCCVPASYNPMVLIQKTDTGVSLQTYDDLLAKDCHCI
B1 was tested. Which “diabetic wound healing, substance alone” value [4] did it give?
The value was “significantly improved wound healing in the db/db mice”.

And the “diabetic wound healing, substance alone” value ([4]; listed as recombinant GDF15)?
The value was “boosts healing”.
